Laboratory results: patent EP2468718A1, “Cabanillasin, a new antifungal compound, produced by entomopathogenic xenorhabdus cabanillasii” (Nosopharm, priority 2010, dated 2012)
≈ marks a conversion by molar mass, not a printed value. Like-named read-outs stand apart in the source and are kept apart here.

Columns and labels:
Assay type in all cases: cell-based
[1] = test system: Fusarium oxysporum clinical strain; assay: Antifungal susceptibility testing, M38-A microdilution method (filamentous fungi); details: for inhibition at 0.09 µg/mL / inhibition at 0.19 µg/mL / inhibition at 0.39 µg/mL / inhibition at 0.78 µg/mL / inhibition at 1.56 µg/mL / inhibition at 3.12 µg/mL / inhibition at 6.25 µg/mL / inhibition at 12.5 µg/mL / inhibition at 25 µg/mL / inhibition at 50 µg/mL: read-out: % of growth inhibition
Procedure: (§1) Cabanillasin activity was tested against different fungal human pathogens: ascomycetes yeasts (Candida albicans ATCC 90029, Candida Glabrata ATCC 90030, Candida krusei ATCC 6258 and Candida lusitaniae CBS 6936), basidiomycetes yeasts (Cryptococcus neoformans clinical strain), ascomycetes filamentous fungi (Aspergilus fumigatus clinical strain, Fusarium oxysporum clinical strain) and zygomycetes filamentous fungi (Rhizopus oryzae environemental strain) by the M38-A microdilution method with RPMI 1640 medium (RPMI 1640, MOPS 160 mM, glucose 18 g/L, pH 7) as recommended in the […]. The NCCLS M27-A2 broth microdilution method (NCCLS) was used when yeasts were tested.
(§2) Yeasts and filamentous inoculi were prepared on YPD medium (yeast extract 10 g/L, peptone 10 g/L and glucose 20 g/L) and Malt medium (malt extract 20 g/L) respectively. The densities of inoculi were adjusted by dilution in RPMI 1640 broth to a value ranged from 5.10^2 to 5.10^3 CFU/mL for yeasts isolates and 5.10^3 to 5.10^4 CFU/mL for filamentous fungi. Microdilution trays (96 U-bottom shaped) containing 190 µL fungal inoculum were added with 10 µL Cabanillasin solution (final concentration ranging from 50 to 0.098 mg/L for all fungi). After inoculation of the trays, all microdilution trays were incubated at 35°C in ambient air. The culture absorbance was measured at 600 nm, 24 h and 48 h after the beginning of the experiments for the yeasts and 48 h and 72 h after the beginning of the experiments for filamentous fungi and Cryptococcus neoformans. The activity results correspond to a percentage of growth inhibition ((1-Abs600 nm culture with Cabanillasin)/ Abs600 nm culture without Cabanillasin) x 100.
(§3) The IC50 value is the concentration at which inhibition of growth is equal to 50%. MICs for Candida species were determined at 24 h and 48 h and corresponded to 100% of growth inhibition. Amphotericin B was provided as standard (final concentration ranging from 16 to 0.03 mg/L for all fungi). Experiments were done in duplicate.

[2] = test system: Rhizopus oryzae environemental strain; assay: as above; details: for inhibition at 0.09 µg/mL / inhibition at 0.19 µg/mL / inhibition at 0.39 µg/mL / inhibition at 0.78 µg/mL / inhibition at 1.56 µg/mL / inhibition at 3.12 µg/mL / inhibition at 6.25 µg/mL / inhibition at 12.5 µg/mL / inhibition at 25 µg/mL / inhibition at 50 µg/mL: Rhizopus arrhizus, read-out: % of growth inhibition
Procedure: as §1, §2, §3

Candida krusei ATCC 6258 = assay: Antifungal susceptibility testing, NCCLS M27-A2 broth microdilution (yeasts); details: Pichia kudriavzevii, ATCC6258; for inhibition at 0.09 µg/mL / inhibition at 0.19 µg/mL / inhibition at 0.39 µg/mL / inhibition at 0.78 µg/mL / inhibition at 1.56 µg/mL / inhibition at 3.12 µg/mL / inhibition at 6.25 µg/mL / inhibition at 12.5 µg/mL / inhibition at 25 µg/mL / inhibition at 50 µg/mL: read-out: % of growth inhibition
Procedure: as §1, §2, §3

[3] = test system: Candida Glabrata ATCC 90030; assay: as above; details: Nakaseomyces glabratus, ATCC90030; for inhibition at 0.09 µg/mL / inhibition at 0.19 µg/mL / inhibition at 0.39 µg/mL / inhibition at 0.78 µg/mL / inhibition at 1.56 µg/mL / inhibition at 3.12 µg/mL / inhibition at 6.25 µg/mL / inhibition at 12.5 µg/mL / inhibition at 25 µg/mL / inhibition at 50 µg/mL: read-out: % of growth inhibition
Procedure: as §1, §2, §3

[4] = test system: Candida albicans ATCC 90029; assay: as above; details: for inhibition at 0.09 µg/mL: ATCC90029, 0.09 µg/mL; for inhibition at 0.09 µg/mL / inhibition at 0.19 µg/mL / inhibition at 0.39 µg/mL / inhibition at 0.78 µg/mL / inhibition at 1.56 µg/mL / inhibition at 3.12 µg/mL / inhibition at 6.25 µg/mL / inhibition at 12.5 µg/mL / inhibition at 25 µg/mL / inhibition at 50 µg/mL: read-out: % of growth inhibition; for inhibition at 0.19 µg/mL: ATCC90029, 0.19 µg/mL; for inhibition at 0.39 µg/mL: ATCC90029, 0.39 µg/mL; for inhibition at 0.78 µg/mL: ATCC90029, 0.78 µg/mL; for inhibition at 1.56 µg/mL: ATCC90029, 1.56 µg/mL; for inhibition at 3.12 µg/mL: ATCC90029, 3.12 µg/mL; for inhibition at 6.25 µg/mL: ATCC90029, 6.25 µg/mL; for inhibition at 12.5 µg/mL: ATCC90029, 12.5 µg/mL; for inhibition at 25 µg/mL: ATCC90029, 25 µg/mL; for inhibition at 50 µg/mL: ATCC90029, 50 µg/mL
Procedure: as §1, §2, §3

CC(=O)NC(=N)NCCCCNC(=N)NCCCCNC(=N)NCCCCNC(=N)NCCCCN [Cabanillasin]
inhibition at 0.09 µg/mL ([1]; 48 h incubation): 0%
inhibition at 0.09 µg/mL ([1]; 72 h incubation): 0%
inhibition at 0.19 µg/mL ([1]; 48 h incubation): 0%
inhibition at 0.19 µg/mL ([1]; 72 h incubation): 0%
inhibition at 0.39 µg/mL ([1]; 48 h incubation): 0%
inhibition at 0.39 µg/mL ([1]; 72 h incubation): 0%
inhibition at 0.78 µg/mL ([1]; 48 h incubation): 0%
inhibition at 0.78 µg/mL ([1]; 72 h incubation): 0%
inhibition at 1.56 µg/mL ([1]; 48 h incubation): 0%
inhibition at 1.56 µg/mL ([1]; 72 h incubation): 0%
inhibition at 3.12 µg/mL ([1]; 48 h incubation): 32.1%
inhibition at 3.12 µg/mL ([1]; 72 h incubation): 0%
inhibition at 6.25 µg/mL ([1]; 48 h incubation): 68.6%
inhibition at 6.25 µg/mL ([1]; 72 h incubation): 48.6%
inhibition at 12.5 µg/mL ([1]; 48 h incubation): 71.6%
inhibition at 12.5 µg/mL ([1]; 72 h incubation): 56.4%
inhibition at 25 µg/mL ([1]; 48 h incubation): 66.6%
inhibition at 25 µg/mL ([1]; 72 h incubation): 72.5%
inhibition at 50 µg/mL ([1]; 48 h incubation): 80.2%
inhibition at 50 µg/mL ([1]; 72 h incubation): 79.8%
IC50 ([1]; incubation time not stated): 6.25 µg/mL (≈ 12.2 µM)
inhibition at 0.09 µg/mL ([2]; 48 h incubation): 0%
inhibition at 0.09 µg/mL ([2]; 72 h incubation): 0%
inhibition at 0.19 µg/mL ([2]; 48 h incubation): 0%
inhibition at 0.19 µg/mL ([2]; 72 h incubation): 0%
inhibition at 0.39 µg/mL ([2]; 48 h incubation): 0%
inhibition at 0.39 µg/mL ([2]; 72 h incubation): 0%
inhibition at 0.78 µg/mL ([2]; 48 h incubation): 0%
inhibition at 0.78 µg/mL ([2]; 72 h incubation): 0%
inhibition at 1.56 µg/mL ([2]; 48 h incubation): 0%
inhibition at 1.56 µg/mL ([2]; 72 h incubation): 0%
inhibition at 3.12 µg/mL ([2]; 48 h incubation): 0%
inhibition at 3.12 µg/mL ([2]; 72 h incubation): 0%
inhibition at 6.25 µg/mL ([2]; 48 h incubation): 0%
inhibition at 6.25 µg/mL ([2]; 72 h incubation): 0%
inhibition at 12.5 µg/mL ([2]; 48 h incubation): 0%
inhibition at 12.5 µg/mL ([2]; 72 h incubation): 0%
inhibition at 25 µg/mL ([2]; 48 h incubation): 0%
inhibition at 25 µg/mL ([2]; 72 h incubation): 0%
inhibition at 50 µg/mL ([2]; 48 h incubation): 40.7%
inhibition at 50 µg/mL ([2]; 72 h incubation): 0%
activity ([2]; at 48h): weak activity
activity ([2]; at 72 h): no activity
inhibition at 0.09 µg/mL (Candida krusei ATCC 6258; 24 h incubation): 0%
inhibition at 0.09 µg/mL (Candida krusei ATCC 6258; 48 h incubation): 0%
inhibition at 0.19 µg/mL (Candida krusei ATCC 6258; 24 h incubation): 0%
inhibition at 0.19 µg/mL (Candida krusei ATCC 6258; 48 h incubation): 0%
inhibition at 0.39 µg/mL (Candida krusei ATCC 6258; 24 h incubation): 0%
inhibition at 0.39 µg/mL (Candida krusei ATCC 6258; 48 h incubation): 0%
inhibition at 0.78 µg/mL (Candida krusei ATCC 6258; 24 h incubation): 0%
inhibition at 0.78 µg/mL (Candida krusei ATCC 6258; 48 h incubation): 0%
inhibition at 1.56 µg/mL (Candida krusei ATCC 6258; 24 h incubation): 0%
inhibition at 1.56 µg/mL (Candida krusei ATCC 6258; 48 h incubation): 0%
inhibition at 3.12 µg/mL (Candida krusei ATCC 6258; 24 h incubation): 9%
inhibition at 3.12 µg/mL (Candida krusei ATCC 6258; 48 h incubation): 0%
inhibition at 6.25 µg/mL (Candida krusei ATCC 6258; 24 h incubation): 79%
inhibition at 6.25 µg/mL (Candida krusei ATCC 6258; 48 h incubation): 31.2%
inhibition at 12.5 µg/mL (Candida krusei ATCC 6258; 24 h incubation): 91%
inhibition at 12.5 µg/mL (Candida krusei ATCC 6258; 48 h incubation): 83%
inhibition at 25 µg/mL (Candida krusei ATCC 6258; 24 h incubation): 100%
inhibition at 25 µg/mL (Candida krusei ATCC 6258; 48 h incubation): 88.5%
inhibition at 50 µg/mL (Candida krusei ATCC 6258; 24 h incubation): 100%
inhibition at 50 µg/mL (Candida krusei ATCC 6258; 48 h incubation): 92.9%
IC50 (Candida krusei ATCC 6258; 24 h of incubation): 6.25 µg/mL (≈ 12.2 µM)
MIC (Candida krusei ATCC 6258; 24 h of incubation, 100% of growth inhibition): 25 µg/mL (≈ 48.9 µM)
inhibition at 0.09 µg/mL ([3]; 24 h incubation): 0%
inhibition at 0.09 µg/mL ([3]; 48 h incubation): 0%
inhibition at 0.19 µg/mL ([3]; 24 h incubation): 5.5%
inhibition at 0.19 µg/mL ([3]; 48 h incubation): 0%
inhibition at 0.39 µg/mL ([3]; 24 h incubation): 11.4%
inhibition at 0.39 µg/mL ([3]; 48 h incubation): 0%
inhibition at 0.78 µg/mL ([3]; 24 h incubation): 15.5%
inhibition at 0.78 µg/mL ([3]; 48 h incubation): 0%
inhibition at 1.56 µg/mL ([3]; 24 h incubation): 28%
inhibition at 1.56 µg/mL ([3]; 48 h incubation): 0%
inhibition at 3.12 µg/mL ([3]; 24 h incubation): 31%
inhibition at 3.12 µg/mL ([3]; 48 h incubation): 0%
inhibition at 6.25 µg/mL ([3]; 24 h incubation): 49.3%
inhibition at 6.25 µg/mL ([3]; 48 h incubation): 0%
inhibition at 12.5 µg/mL ([3]; 24 h incubation): 66.2%
inhibition at 12.5 µg/mL ([3]; 48 h incubation): 18.5%
inhibition at 25 µg/mL ([3]; 24 h incubation): 61.4%
inhibition at 25 µg/mL ([3]; 48 h incubation): 44%
inhibition at 50 µg/mL ([3]; 24 h incubation): 59%
inhibition at 50 µg/mL ([3]; 48 h incubation): 57%
IC50 ([3]; 24 h of incubation): 6.25 µg/mL (≈ 12.2 µM)
inhibition at 0.09 µg/mL ([4]; 24 h incubation): 34%
inhibition at 0.09 µg/mL ([4]; 48 h incubation): 0%
inhibition at 0.19 µg/mL ([4]; 24 h incubation): 37%
inhibition at 0.19 µg/mL ([4]; 48 h incubation): 0%
inhibition at 0.39 µg/mL ([4]; 24 h incubation): 34%
inhibition at 0.39 µg/mL ([4]; 48 h incubation): 0%
inhibition at 0.78 µg/mL ([4]; 24 h incubation): 50.5%
inhibition at 0.78 µg/mL ([4]; 48 h incubation): 0%
inhibition at 1.56 µg/mL ([4]; 24 h incubation): 46.3%
inhibition at 1.56 µg/mL ([4]; 48 h incubation): 0%
inhibition at 3.12 µg/mL ([4]; 24 h incubation): 45.4%
inhibition at 3.12 µg/mL ([4]; 48 h incubation): 0%
inhibition at 6.25 µg/mL ([4]; 24 h incubation): 47.7%
inhibition at 6.25 µg/mL ([4]; 48 h incubation): 0%
inhibition at 12.5 µg/mL ([4]; 24 h incubation): 70.7%
inhibition at 12.5 µg/mL ([4]; 48 h incubation): 0%
inhibition at 25 µg/mL ([4]; 24 h incubation): 71%
inhibition at 25 µg/mL ([4]; 48 h incubation): 0%
inhibition at 50 µg/mL ([4]; 24 h incubation): 81%
inhibition at 50 µg/mL ([4]; 48 h incubation): 18%
IC50 ([4]; ATCC90029, 24 h of incubation): 0.78 µg/mL (≈ 1.52 µM)
